These results are taken from patent publication US6602878B1, “Acylquanidine derivatives, method for preparing same, application as medicines and pharmaceutical compositions containing them” (Aventis Pharma S.A., priority 1998, dated 2003).

For this test, the target named is human αvβ3 receptor (Homo sapiens, UniProt P05106+P06756). Kind of test: Kistrin/Vitronectin Receptor (αvβ3) ELISA Test. The test is classed as binding. As to conditions: kistrin-coated plates, 3 hours at ambient temperature, OD 450 nm, read-out: K/VnR IC50. As for the experimental part: Kistrin/Vitronectin Receptor (αvβ3) ELISA Test
96-well MaxiSorp plates are coated overnight at […] with 100 μl of Kistrin at 1 μg/ml (dilution in coating buffer: 0.05 M (carbonate)/NaOH pH 9.6. The next day, the wells are emptied and the ligands (kistrin) are then fixed (fixation buffers: PBS containing 0.5% BSA (pH=7.4)) for 1 hour at ambient temperature under gentle agitation of 125 rpm. The wells are washed six times (washing buffer: PBS containing 0.05% Tween 20 (pH 7.7) then the following is added per well and in this order:
40 μl of incubation buffer
10 μl of the dilution of the product to be tested (the products are diluted in a 50:50 DMSO/water mixture)
50 μl of human αvβ3 receptor (cf Pytel et al. Methods Enzymol. (1987) 144 (Dilution in incubation buffer, adapted according to the batch of receptor and according to the ligand). The ligand, the αvβ3 receptor and the products to be studied are incubated for 3 hours at ambient temperature with gentle agitation of 125 rpm.
The wells are again washed six times, then incubated for 2 hours at ambient temperature with gentle agitation of 125 rpm, in the presence of 100 μl of anti-receptor antibody coupled to a peroxidase (The 4B12-HRP antibody is diluted in incubation buffer (50 mM TRIS pH 7.4; 0.5% BSA; 0.05% Tween 20; 1 mM MnCl2; 50 μM CaCl2; 50 μM MgCl2; 100 mM NaCl). The dilution is to be adapted according to the batch of receptor.
The wells are then washed six times before measurement of the ligand-receptor bond is carried out using a peroxidase developer kit (TBM Microwell Peroxidase Substrate System Kirkegaard; Ref cat 50-76-00).
This kit contains a flask A of substrate (3,3′,5,5′-tetramethylebenzidine at 0.4 g/l) and a flask B (H2O2 to 0.02% in Citrate/Citric acid). Extemporaneously, one volume of A is mixed with one volume of B, then the reaction mixture is distributed at a rate of 100 μl/wells.
The enzymatic reaction develops between 6 to 10 minutes for Kistrin/αvβ3 then its development is stopped by the addition of 100 μl of 1 M phosphoric acid. The optical density is determined at 450 nm.
Expression of the Results
The following curve is plotted: the bond percentage as a function of the logarithm of each concentration of the tested product.
For each product IC50 is determined according to the following formula:
B0=Maximum bond in the absence of any product
Bmin=Minimum bond in the presence of the highest
(ELISA stands for enzyme-linked immunosorbent assay.)

human αvβ3 receptor, sequence (P06756 31-889 limits assumed): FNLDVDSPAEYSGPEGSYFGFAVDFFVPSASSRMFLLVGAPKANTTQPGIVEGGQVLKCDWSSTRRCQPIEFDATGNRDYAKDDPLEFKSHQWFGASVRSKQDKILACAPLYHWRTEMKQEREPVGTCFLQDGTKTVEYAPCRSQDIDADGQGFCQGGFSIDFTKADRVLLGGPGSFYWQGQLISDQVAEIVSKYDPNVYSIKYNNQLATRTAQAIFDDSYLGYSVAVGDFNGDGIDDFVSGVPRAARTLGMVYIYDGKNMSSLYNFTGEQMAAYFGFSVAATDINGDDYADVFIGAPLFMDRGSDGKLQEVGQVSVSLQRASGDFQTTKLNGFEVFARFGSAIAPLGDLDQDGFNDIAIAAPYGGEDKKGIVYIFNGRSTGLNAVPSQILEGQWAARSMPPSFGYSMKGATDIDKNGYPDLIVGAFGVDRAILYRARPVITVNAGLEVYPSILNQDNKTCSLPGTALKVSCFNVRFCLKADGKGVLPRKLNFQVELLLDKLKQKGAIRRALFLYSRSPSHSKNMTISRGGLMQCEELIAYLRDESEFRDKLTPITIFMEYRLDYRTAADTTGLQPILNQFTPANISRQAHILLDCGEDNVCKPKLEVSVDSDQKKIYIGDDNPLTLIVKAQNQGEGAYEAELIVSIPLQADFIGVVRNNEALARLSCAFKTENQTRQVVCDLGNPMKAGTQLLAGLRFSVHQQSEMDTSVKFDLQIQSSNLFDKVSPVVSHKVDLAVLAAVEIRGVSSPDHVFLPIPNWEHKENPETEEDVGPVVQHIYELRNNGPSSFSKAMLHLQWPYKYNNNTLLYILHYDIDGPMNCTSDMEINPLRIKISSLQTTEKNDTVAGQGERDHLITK
human αvβ3 receptor, sequence (P06756 891-1048 partner limits assumed): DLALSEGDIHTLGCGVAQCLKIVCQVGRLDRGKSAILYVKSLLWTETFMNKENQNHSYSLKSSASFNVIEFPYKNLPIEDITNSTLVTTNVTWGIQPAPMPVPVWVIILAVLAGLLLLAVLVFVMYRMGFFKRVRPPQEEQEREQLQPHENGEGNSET
human αvβ3 receptor, sequence (P05106 27-788): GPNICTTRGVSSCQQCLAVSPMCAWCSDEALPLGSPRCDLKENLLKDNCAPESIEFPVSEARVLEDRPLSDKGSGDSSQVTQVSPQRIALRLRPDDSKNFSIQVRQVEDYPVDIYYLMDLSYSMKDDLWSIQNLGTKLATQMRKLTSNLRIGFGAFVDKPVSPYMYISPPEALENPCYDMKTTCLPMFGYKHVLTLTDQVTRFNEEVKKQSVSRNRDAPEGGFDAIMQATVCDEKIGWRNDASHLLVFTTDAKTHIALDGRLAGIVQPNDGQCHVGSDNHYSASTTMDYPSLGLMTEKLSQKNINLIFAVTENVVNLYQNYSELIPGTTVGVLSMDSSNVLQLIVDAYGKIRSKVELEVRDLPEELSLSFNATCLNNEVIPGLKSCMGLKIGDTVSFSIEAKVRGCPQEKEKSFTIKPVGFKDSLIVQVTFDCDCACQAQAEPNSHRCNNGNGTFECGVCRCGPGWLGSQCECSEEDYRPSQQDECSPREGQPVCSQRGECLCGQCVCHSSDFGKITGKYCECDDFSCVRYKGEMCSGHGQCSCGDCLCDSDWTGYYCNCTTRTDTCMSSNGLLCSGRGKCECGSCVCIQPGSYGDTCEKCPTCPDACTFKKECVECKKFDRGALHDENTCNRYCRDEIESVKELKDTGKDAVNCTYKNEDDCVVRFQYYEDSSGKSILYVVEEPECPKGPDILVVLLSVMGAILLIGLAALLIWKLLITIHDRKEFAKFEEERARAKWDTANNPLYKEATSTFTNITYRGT

Take `N=C(N)NC(=O)CCc1ccc(OCCC(NC(=O)OCc2ccccc2)C(=O)O)cc1` (stereo not drawn) [Example 1, O—[4-[3-[(aminoiminomethyl)amino]-3-oxopropyl]phenyl]-N-[(phenylmethoxy)carbonyl]-homoserine]: the IC50 was determined as 31 nM.
The figure for `O=C(CCc1ccc(OCC[C@H](NC(=O)OCc2ccccc2)C(=O)O)cc1)NC1=NCCCN1` [Example 2, O—[4-[3-oxo-3-[(1,4,5,6-tetrahydro-2-pyrimidinyl)amino]-propyl]phenyl]-N-[(phenylmethoxy)carbonyl]-homoserine] is 7.3 nM; for `CCOC(=O)C(CCOc1ccc(CCC(=O)NC2=NCCCN2)cc1)NC(=O)OCc1ccccc1` (stereo not drawn) [Example 3, Ethyl O—[4-[3-oxo-3-[(1.4,5,6-tetrahydro-2-pyrimidinyl)amino]-propyl]phenyl]-N [(phenylmethoxy)carbonyl]-homoserinate] it is 403 nM; for `CC(C)OC(=O)C(CCOc1ccc(CCC(=O)NC2=NCCCN2)cc1)NC(=O)OCc1ccccc1` (stereo not drawn) [Example 4, (1-Methyl)ethyl O—[4-[3-oxo-3-[(1.4,5,6-tetrahydro-2-pyrimidinyl)amino]-propyl]phenyl]-N-[(phenylmethoxy)carbonyl]-homoserinate] it is 5000 nM.
The figure for `O=C(CCc1ccc(OCC[C@H](NC(=O)OCC23CC4CC(CC(C4)C2)C3)C(=O)O)cc1)NC1=NCCCN1` [Example 5, O—[4-[3-oxo-3-[(1.4,5,6-tetrahydro-2-pyrimidinyl)amino]-propyl]phenyl]-N-[[(1-tricyclo[3.3.1.1^3,7]decyl)-methoxy]-carbonyl]-homoserine] is 12 nM.
With `Cc1cc(C)c(S(=O)(=O)NC(CCOc2ccc(CCC(=O)NC3=NCCCN3)cc2)C(=O)O)c(C)c1` (stereo not drawn) [Example 6, O—[4-[3-oxo-3-[(1.4,5,6-tetrahydro-2-pyrimidinyl)amino]-propyl)phenyl]-N-[(2.4,6-trimethylphenyl)sulphonyl]-homoserine] the figure was 3.3 nM; with `O=C(CCc1ccc(OCCC(NS(=O)(=O)c2cccc3ccccc23)C(=O)O)cc1)NC1=NCCCN1` (stereo not drawn) [Example 7, O—[4-[3-oxo-3-[(1.4,5,6-tetrahydro-2-pyrimidinyl)amino]-propyl]phenyl]-N-[(1-naphthalenyl)sulphonyl]-homoserine], 2.5 nM; with `O=C(CCc1cccc(OCCC(NC(=O)OCc2ccccc2)C(=O)O)c1)NC1=NCCCN1` (stereo not drawn) [Example 8, O—[3-[3-oxo-3-[(1,4,5,6-tetrahydro-2-pyrimidinyl)amino]-propyl]phenyl]-N-[(phenylmethoxy)carbonyl]-homoserine;], 13 nM.
`O=C(CCc1cccc(OCCCC(NC(=O)OCc2ccccc2)C(=O)O)c1)NC1=NCCCN1` (stereo not drawn) [Example 9, 5-[3-[3-oxo-3-[(1.4,5,6-tetrahydro-2-pyrimidinyl)amino]-propyl]phenoxy]-N-[(phenylmethoxy)carbonyl]-norvaline]: the IC50 is 110 nM.
